Reference: patent US8263642B2, “Antimicrobial compounds and methods of use thereof” (Vanderbilt University, priority 2008, dated 2012)

System: HssRS-dependent hrtAB expression
Experiment: Luminescence-based assay to monitor HssRS-dependent hrtAB expression (phrtABlux reporter), Newman
Type: cell-based, Staphylococcus aureus
Details: Newman; for activation at 0.0825 µM: Staphylococcus aureus, NEWMAN, read-out: % Lumi, luminescence induced by the compound compared to the heme control (82.5 nM) in the same plate; for Luminescence: raw luminescence value obtained in a luminometer
How it was run: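 S. aureus Newman wild type or ΔhssR carrying a hrtAB promoter–luxCDABE reporter (phrtABlux), grown in TSB with 10 μg/ml chloramphenicol at 37 °C. Light output read against 82.5 nM heme as the in-plate positive control. Activity given as % of heme-induced luminescence.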

Compound	activation at 0.0825 µM [%]	Luminescence
COc1ccc(-c2cc(-c3ccc(C)cc3)[nH]n2)c(O)c1	180	1122
COc1ccc(-c2cc(-c3ccc(OC)cc3O)n[nH]2)cc1	238	1482
COc1ccc(C(=O)Nc2sc(-c3ccccc3)cc2C(N)=O)cc1	244	1781
Fc1ccc(CNC(=S)Nc2ccc(Oc3ccccc3)cc2)cc1	362	1570
CC(C)(C)c1ccc(O)c(NC(=S)NC(=O)c2cc3ccccc3o2)c1	101	419
Oc1c(-c2cc(-c3ccco3)[nH]n2)ccc2ccccc12 [drawing 25]		2622
CC(NC(=O)C1(c2ccccc2)CCCC1)C1COc2ccccc2O1 (stereo not shown) [drawing 26]	266	757
Cc1ccc(O)c(NC(=O)c2nn3c(c2Br)NC(c2ccco2)CC3C(F)(F)F)c1 (stereo not shown) [drawing 29]	307	1949
Cc1cccc(C(=O)Nc2ccc(-c3nc4ccccc4o3)cc2)c1 [drawing 43]		837
CC(NC(=O)C1(c2ccccc2)CCCC1)C1COc2ccccc2O1 (stereo not shown) [drawing 45]		757
O=C(N/N=C/c1ccc(-c2ccc(Br)cc2)o1)C1COc2ccccc2O1 (stereo not shown) [drawing 48]	133	485
O=C(N/N=C/c1ccc(-c2cccc(C(F)(F)F)c2)o1)C1COc2ccccc2O1 (stereo not shown) [drawing 49]	152	558
COc1ccc(Br)cc1C(=O)NC(=S)Nc1cc(C)c(C)cc1O [drawing 63]		946
Oc1c(-c2cc(-c3ccco3)[nH]n2)ccc2ccccc12 [drawing 65]	630	2622
CCCN1C(=O)/C(=C2/C(=O)N(CC(=O)Nc3ccc(Cl)cc3)c3ccccc32)SC1=S [drawing 67]		98
Cc1ccc(NS(=O)(=O)c2ccc3c(c2)Cc2cc(S(=O)(=O)Nc4ccc(C)cc4)ccc2-3)cc1 [drawing 74]		7328
COc1ccccc1NC1=C/C(=N\S(=O)(=O)c2ccc(Br)cc2)c2ccccc2C1=O [drawing 81]	510	2270
